From US10005788B2, “Bicyclic fused pyrimidine compounds as TAM inhibitors” (Incyte Corporation, priority 2015, dated 2018)

Biological target: c-Mer (Homo sapiens (Human), UniProt Q12866)
Assay: TAM Enzymatic Assay (HTRF), c-Mer
Format: biochemical
Conditions: 0.0625 nM c-Mer

Sequence of c-Mer (Q12866 21-999): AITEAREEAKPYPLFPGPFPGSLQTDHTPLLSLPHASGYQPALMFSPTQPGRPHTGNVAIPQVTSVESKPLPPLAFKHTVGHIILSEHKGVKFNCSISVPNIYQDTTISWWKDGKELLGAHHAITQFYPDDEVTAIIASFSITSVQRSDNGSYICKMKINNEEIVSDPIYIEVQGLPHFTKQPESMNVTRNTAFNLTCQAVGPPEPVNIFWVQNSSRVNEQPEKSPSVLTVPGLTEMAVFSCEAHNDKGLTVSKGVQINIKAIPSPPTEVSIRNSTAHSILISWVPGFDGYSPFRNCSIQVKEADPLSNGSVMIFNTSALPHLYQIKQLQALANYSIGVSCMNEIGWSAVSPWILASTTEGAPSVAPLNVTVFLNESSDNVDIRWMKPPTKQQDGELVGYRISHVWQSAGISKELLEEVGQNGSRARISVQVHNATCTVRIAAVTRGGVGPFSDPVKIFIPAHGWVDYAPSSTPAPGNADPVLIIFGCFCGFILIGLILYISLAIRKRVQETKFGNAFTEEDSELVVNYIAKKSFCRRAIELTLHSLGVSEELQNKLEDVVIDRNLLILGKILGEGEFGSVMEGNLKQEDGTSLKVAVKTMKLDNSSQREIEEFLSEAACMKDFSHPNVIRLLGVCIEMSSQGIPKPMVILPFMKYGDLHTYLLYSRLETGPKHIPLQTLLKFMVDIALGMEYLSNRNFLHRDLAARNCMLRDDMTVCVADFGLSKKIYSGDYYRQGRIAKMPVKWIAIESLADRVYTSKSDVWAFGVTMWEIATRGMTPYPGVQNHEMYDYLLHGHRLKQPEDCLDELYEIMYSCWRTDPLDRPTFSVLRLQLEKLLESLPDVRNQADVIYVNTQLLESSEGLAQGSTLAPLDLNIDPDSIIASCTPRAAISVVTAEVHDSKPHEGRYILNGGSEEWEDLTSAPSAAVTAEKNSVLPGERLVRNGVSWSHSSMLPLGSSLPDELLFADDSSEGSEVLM

IC50 [nM]	Structure (SMILES)
≤ 100	N[C@H]1CC[C@H](Cc2nc(-c3ccc(F)cc3)c3cnc(NCCCc4ccccc4)nn23)CC1 [Example 14, trans-7-((4-Aminocyclohexyl)methyl)-5-(4-fluorophenyl)-N-(3-phenylpropyl)imidazo[5,1-f][1,2,4]triazin-2-amine]

Biological target: Tyro3 (Homo sapiens (Human), UniProt Q06418)
Sequence (Q06418 41-890): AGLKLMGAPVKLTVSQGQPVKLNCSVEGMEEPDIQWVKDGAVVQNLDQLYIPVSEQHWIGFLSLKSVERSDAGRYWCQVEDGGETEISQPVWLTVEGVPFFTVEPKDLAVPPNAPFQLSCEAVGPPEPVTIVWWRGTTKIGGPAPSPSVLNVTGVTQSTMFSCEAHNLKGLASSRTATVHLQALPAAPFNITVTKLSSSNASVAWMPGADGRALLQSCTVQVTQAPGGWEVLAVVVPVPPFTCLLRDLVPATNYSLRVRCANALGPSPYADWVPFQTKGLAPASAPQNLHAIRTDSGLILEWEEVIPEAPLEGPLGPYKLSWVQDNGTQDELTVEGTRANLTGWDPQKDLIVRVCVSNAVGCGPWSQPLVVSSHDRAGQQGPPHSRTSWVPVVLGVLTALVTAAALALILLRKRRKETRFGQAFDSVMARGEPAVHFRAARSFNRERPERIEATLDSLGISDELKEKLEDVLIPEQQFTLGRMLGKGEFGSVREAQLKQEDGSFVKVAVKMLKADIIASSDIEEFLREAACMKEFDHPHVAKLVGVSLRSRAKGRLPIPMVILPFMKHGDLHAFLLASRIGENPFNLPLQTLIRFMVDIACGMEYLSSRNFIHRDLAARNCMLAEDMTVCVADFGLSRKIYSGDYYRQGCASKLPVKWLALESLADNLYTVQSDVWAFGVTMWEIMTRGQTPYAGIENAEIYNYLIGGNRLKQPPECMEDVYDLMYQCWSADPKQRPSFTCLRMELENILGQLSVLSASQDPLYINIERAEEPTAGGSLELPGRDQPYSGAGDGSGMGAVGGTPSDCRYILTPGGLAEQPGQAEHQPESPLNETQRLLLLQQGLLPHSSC
Assay: TAM Enzymatic Assay (HTRF), Tyro3
Format: biochemical
Conditions: 0.366 nM Tyro3, HTRF
Method: The kinase assay buffer contained 50 mM HEPES, pH7.5, 10 mM MgCl2, 1 mM EGTA, 0.01% NP-40 and 2 mM DTT. 0.1 ul test compounds dissolved in DMSO were transferred from compound plates to white 384-well assay plates (Greiner [sequence] plates). […] 4 ul enzyme solution (or assay buffer for the enzyme blank) was added to the appropriate wells in each plate, and then 4 ul/well substrate solution was added to initiate the reaction. The plate was protected from light and incubated at room temperature for 60 min. […] The plate was incubated for 1 h at room temperature, and HTRF (homogenous time resolved fluorescence) signal was measured on a PHERAstar FS plate reader (BMG labtech). Percentage of inhibition was calculated for each concentration and IC50 value was generated from curve fitting with GraphPad Prism software.

IC50 [nM]	Structure (SMILES)
> 1000	N[C@H]1CC[C@H](Cc2nc(-c3ccc(F)cc3)c3cnc(NCCCc4ccccc4)nn23)CC1 [Example 14, trans-7-((4-Aminocyclohexyl)methyl)-5-(4-fluorophenyl)-N-(3-phenylpropyl)imidazo[5,1-f][1,2,4]triazin-2-amine]

Biological target: JAK1 (Homo sapiens (Human), UniProt P23458)
Sequence (P23458 whole entry, species assumed): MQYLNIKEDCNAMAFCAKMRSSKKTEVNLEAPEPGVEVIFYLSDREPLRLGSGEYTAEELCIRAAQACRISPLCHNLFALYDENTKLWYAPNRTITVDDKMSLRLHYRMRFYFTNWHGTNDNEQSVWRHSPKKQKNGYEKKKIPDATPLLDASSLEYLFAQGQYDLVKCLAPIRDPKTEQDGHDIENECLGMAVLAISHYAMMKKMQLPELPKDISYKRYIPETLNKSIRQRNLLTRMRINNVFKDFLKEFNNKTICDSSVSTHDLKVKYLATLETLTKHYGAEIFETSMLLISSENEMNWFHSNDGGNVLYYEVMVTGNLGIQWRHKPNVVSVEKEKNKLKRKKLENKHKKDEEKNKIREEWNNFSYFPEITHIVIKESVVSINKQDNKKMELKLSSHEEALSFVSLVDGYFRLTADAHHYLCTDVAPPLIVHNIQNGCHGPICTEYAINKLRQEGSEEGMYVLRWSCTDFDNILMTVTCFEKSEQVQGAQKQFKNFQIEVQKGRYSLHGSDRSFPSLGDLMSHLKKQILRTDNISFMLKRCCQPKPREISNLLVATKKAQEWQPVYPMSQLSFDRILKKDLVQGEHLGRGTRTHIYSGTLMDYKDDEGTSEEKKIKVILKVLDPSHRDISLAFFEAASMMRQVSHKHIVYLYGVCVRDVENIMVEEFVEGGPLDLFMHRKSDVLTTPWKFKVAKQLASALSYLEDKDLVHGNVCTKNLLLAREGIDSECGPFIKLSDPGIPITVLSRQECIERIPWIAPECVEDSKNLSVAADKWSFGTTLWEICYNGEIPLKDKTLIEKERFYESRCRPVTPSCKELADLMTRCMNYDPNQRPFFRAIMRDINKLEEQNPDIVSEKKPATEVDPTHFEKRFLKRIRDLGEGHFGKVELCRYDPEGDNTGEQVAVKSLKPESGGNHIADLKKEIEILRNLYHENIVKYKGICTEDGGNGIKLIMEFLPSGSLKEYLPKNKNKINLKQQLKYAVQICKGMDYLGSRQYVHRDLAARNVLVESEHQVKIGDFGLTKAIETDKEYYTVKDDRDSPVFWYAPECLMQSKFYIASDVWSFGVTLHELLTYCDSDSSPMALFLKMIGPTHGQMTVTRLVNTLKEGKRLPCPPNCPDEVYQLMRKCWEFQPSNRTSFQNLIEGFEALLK
Assay: not given
Conditions: 1 mM ATP; cited from earlier work

Structure (SMILES)	IC50 [nM]
CCCCNc1ncc2c(-c3ccc(F)cc3)nc(C[C@H]3CC[C@H](N)CC3)n2n1 [Example 13, trans-7-[(4-Aminocyclohexyl)methyl]-N-butyl-5-(4-fluorophenyl)imidazo[5,1-f][1,2,4]triazin-2-amine]	< 10
N[C@H]1CC[C@H](Cc2nc(-c3ccc(F)cc3)c3cnc(NCCCc4ccccc4)nn23)CC1 [Example 14, trans-7-((4-Aminocyclohexyl)methyl)-5-(4-fluorophenyl)-N-(3-phenylpropyl)imidazo[5,1-f][1,2,4]triazin-2-amine]	< 10
CCCCNc1ncc2c(-c3ccc(F)cc3)nc(C3CCC(N)CC3)n2n1 (centres unmarked) [Example 15, 7-(4-Aminocyclohexyl)-N-butyl-5-(4-fluorophenyl)imidazo[5,1-f][1,2,4]triazin-2-amine]	< 10

Biological target: JAK2 (Homo sapiens (Human), UniProt O60674)
Sequence (O60674 whole entry, species assumed): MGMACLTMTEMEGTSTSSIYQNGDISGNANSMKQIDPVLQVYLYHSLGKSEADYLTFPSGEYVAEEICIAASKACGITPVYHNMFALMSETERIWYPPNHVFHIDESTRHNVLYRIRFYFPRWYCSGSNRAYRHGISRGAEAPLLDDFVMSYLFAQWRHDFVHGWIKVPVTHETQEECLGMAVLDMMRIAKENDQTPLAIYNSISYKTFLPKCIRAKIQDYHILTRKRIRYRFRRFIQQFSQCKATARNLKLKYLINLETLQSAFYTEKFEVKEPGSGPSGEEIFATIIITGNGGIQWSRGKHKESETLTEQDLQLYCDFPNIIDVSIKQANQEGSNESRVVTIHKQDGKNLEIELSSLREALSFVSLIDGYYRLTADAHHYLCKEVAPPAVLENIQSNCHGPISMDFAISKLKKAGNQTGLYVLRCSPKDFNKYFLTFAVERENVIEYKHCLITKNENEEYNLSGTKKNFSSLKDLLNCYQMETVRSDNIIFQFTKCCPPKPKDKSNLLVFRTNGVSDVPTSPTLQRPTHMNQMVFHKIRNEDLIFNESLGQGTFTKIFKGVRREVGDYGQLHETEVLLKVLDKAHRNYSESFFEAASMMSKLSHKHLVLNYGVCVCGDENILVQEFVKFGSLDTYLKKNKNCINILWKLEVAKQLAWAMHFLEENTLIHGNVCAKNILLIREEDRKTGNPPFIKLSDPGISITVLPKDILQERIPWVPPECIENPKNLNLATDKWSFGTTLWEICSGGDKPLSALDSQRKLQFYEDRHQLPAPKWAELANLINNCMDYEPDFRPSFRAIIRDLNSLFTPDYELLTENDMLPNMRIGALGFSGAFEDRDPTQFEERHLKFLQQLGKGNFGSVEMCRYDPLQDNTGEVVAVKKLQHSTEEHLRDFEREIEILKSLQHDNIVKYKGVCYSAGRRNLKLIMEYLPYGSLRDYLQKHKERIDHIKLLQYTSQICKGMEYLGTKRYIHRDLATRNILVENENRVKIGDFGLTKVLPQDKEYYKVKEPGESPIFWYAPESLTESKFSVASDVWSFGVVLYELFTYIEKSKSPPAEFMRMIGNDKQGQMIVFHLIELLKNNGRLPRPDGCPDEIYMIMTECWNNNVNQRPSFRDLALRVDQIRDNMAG
Assay: not given
Conditions: ratio of IC50, 1 mM ATP; cited from earlier work

Structure (SMILES)	JAK2/JAK1
N#CCC(C1CCN(c2cccc(Cl)n2)C1)n1cc(-c2ncnc3[nH]ccc23)cn1 (single isomer, unassigned) [Compound 3, 3-[1-(6-chloropyridin-2-yl)pyrrolidin-3-yl]-3-[4-(7H-pyrrolo[2,3-d]pyrimidin-4-yl)-1H-pyrazol-1-yl]propanenitrile]	>10
C[C@@H](O)c1nc2cnc3ccsc3c2n1[C@H]1CC[C@H](CC#N)OC1 [Compound 1, ((2R,5S)-5-{2-[(1R)-1-hydroxyethyl]-1H-imidazo[4,5-d]thieno[3,2-b]pyridin-1-yl}tetrahydro-2H-pyran-2-yl)acetonitrile]	>10
N#CCC(C1CCN(c2nc3cccnc3o2)C1)n1cc(-c2ncnc3[nH]ccc23)cn1 (centres unmarked) [Compound 4, 3-(1-[1,3]oxazolo[5,4-b]pyridin-2-ylpyrrolidin-3-yl)-3-[4-(7H-pyrrolo[2,3-d]pyrimidin-4-yl)-1H-pyrazol-1-yl]propanenitrile]	>10
N#CCC(CN1CCN(C(=O)c2ccc(C#N)cc2F)CC1)n1cc(-c2ncnc3[nH]ccc23)cn1 (centres unmarked) [Compound 5]	>10
N#CCC(CN1CCN(C(=O)c2ccc(C#N)cc2F)CC1)n1ccc(-c2ncnc3[nH]ccc23)c1 (centres unmarked) [Compound 6, 4-[(4-{3-cyano-2-[3-(7H-pyrrolo[2,3-d]pyrimidin-4-yl)-1H-pyrrol-1-yl]propyl}piperazin-1-yl)carbonyl]-3-fluorobenzonitrile]	>10
N#CCC1(n2cc(-c3ncnc4[nH]ccc34)cn2)CN(C2CCN(C(=O)c3ccnc(C(F)(F)F)c3F)CC2)C1 [Compound 7, {1-{1-[3-Fluoro-2-(trifluoromethyl)isonicotinoyl]piperidin-4-yl}-3-[4-(7H-pyrrolo[2,3-d]pyrimidin-4-yl)-1H-pyrazol-1-yl]azetidin-3-yl}acetonitrile]	>10
N#CCC1(n2cc(-c3ncnc4[nH]ccc34)cn2)CN(C2CCN(C(=O)Nc3ccc(F)cc3C(F)(F)F)CC2)C1 [Compound 8, 4-{3-(Cyanomethyl)-3-[4-(7H-pyrrolo[2,3-d]pyrimidin-4-yl)-1H-pyrazol-1-yl]azetidin-1-yl}-N-[4-fluoro-2-(trifluoromethyl)phenyl]piperidine-1-carboxamide]	>10
N#CCC1(n2cc(-c3ncnc4[nH]ccc34)cn2)CN(C2CCN(C(=O)c3ccnc(C(F)(F)F)n3)CC2)C1 [Compound 9, [3-[4-(7H-pyrrolo[2,3-d]pyrimidin-4-yl)-1H-pyrazol-1-yl]-1-(1-{[2-(trifluoromethyl)pyrimidin-4-yl]carbonyl}piperidin-4-yl)azetidin-3-yl]acetonitrile]	>10
N#CC[C@]1(n2cc(-c3ncnc4[nH]ccc34)cn2)C[C@H](N2CCN(C(=O)c3ccnc(C(F)(F)F)n3)CC2)C1 [Compound 10, [trans-1-[4-[7H-pyrrolo[2,3-d]pyrimidin-4-yl)-1H-pyrazol-1-yl]-3-(4-{[2-(trifluoromethyl)pyrimidin-4-yl]carbonyl}piperazin-1-yl)cyclobutyl]acetonitrile]	>10
C[C@H](NC(=O)c1cc(F)c(N2CC(CC#N)(n3cc(-c4ncnc5[nH]ccc45)cn3)C2)cc1F)C(F)(F)F [Compound 16, 4-{3-(cyanomethyl)-3-[4-(7H-pyrrolo[2,3-d]pyrimidin-4-yl)-1H-pyrazol-1-yl]azetidin-1-yl}-2,5-difluoro-N-[(1S)-2,2,2-trifluoro-1-methylethyl]benzamide]	>10
N#CCC1(n2cc(-c3ncnc4[nH]ccc34)cn2)CN([C@H]2CC[C@@H](Oc3cc(CCO)nc(C(F)(F)F)n3)CC2)C1 [Compound 18, {1-(cis-4-{[6-(2-hydroxyethyl)-2-(trifluoromethyl)pyrimidin-4-yl]oxy}cyclohexyl)-3-[4-(7H-pyrrolo[2,3-d]pyrimidin-4-yl)-1H-pyrazol-1-yl]azetidin-3-yl}acetonitrile]	>10
CCNCc1cc(O[C@H]2CC[C@@H](N3CC(CC#N)(n4cc(-c5ncnc6[nH]ccc56)cn4)C3)CC2)nc(C(F)(F)F)c1 [Compound 19, {1-(cis-4-{[4-[(ethylamino)methyl]-6-(trifluoromethyl)pyridin-2-yl]oxy}cyclohexyl)-3-[4-(7H-pyrrolo[2,3-d]pyrimidin-4-yl)-1H-pyrazol-1-yl]azetidin-3-yl}acetonitrile]	>10
CC(C)(O)c1cc(O[C@H]2CC[C@@H](N3CC(CC#N)(n4cc(-c5ncnc6[nH]ccc56)cn4)C3)CC2)nc(C(F)(F)F)c1 [Compound 20, {1-(cis-4-{[4-(1-hydroxy-1-methylethyl)-6-(trifluoromethyl)pyridin-2-yl]oxy}cyclohexyl)-3-[4-(7H-pyrrolo[2,3-d]pyrimidin-4-yl)-1H-pyrazol-1-yl]azetidin-3-yl}acetonitrile]	>10
C[C@@H](CO)NCc1cc(OC2CCN([C@H]3C[C@](CC#N)(n4cc(-c5ncnc6[nH]ccc56)cn4)C3)CC2)nc(C(F)(F)F)c1 [Compound 23, {trans-3-(4-{[4-({[(1S)-2-hydroxy-1-methylethyl]amino}methyl)-6-(trifluoromethyl)pyridin-2-yl]oxy}piperidin-1-yl)-1-[4-(7H-pyrrolo[2,3-d]pyrimidin-4-yl)-1H-pyrazol-1-yl]cyclobutyl}acetonitrile]	>10
C[C@@H](O)CNCc1cc(OC2CCN([C@H]3C[C@](CC#N)(n4cc(-c5ncnc6[nH]ccc56)cn4)C3)CC2)nc(C(F)(F)F)c1 [Compound 24, {trans-3-(4-{[4-({[(2R)-2-hydroxypropyl]amino}methyl)-6-(trifluoromethyl)pyridin-2-yl]oxy}piperidin-1-yl)-1-[4-(7H-pyrrolo[2,3-d]pyrimidin-4-yl)-1H-pyrazol-1-yl]cyclobutyl}acetonitrile]	>10
C[C@H](O)CNCc1cc(OC2CCN([C@H]3C[C@](CC#N)(n4cc(-c5ncnc6[nH]ccc56)cn4)C3)CC2)nc(C(F)(F)F)c1 [Compound 25, {trans-3-(4-{[4-({[(2S)-2-hydroxypropyl]amino}methyl)-6-(trifluoromethyl)pyridin-2-yl]oxy}piperidin-1-yl)-1-[4-(7H-pyrrolo[2,3-d]pyrimidin-4-yl)-1H-pyrazol-1-yl]cyclobutyl}acetontrile]	>10
N#CC[C@]1(n2cc(-c3ncnc4[nH]ccc34)cn2)C[C@H](N2CCC(Oc3cc(CCO)cc(C(F)(F)F)n3)CC2)C1 [Compound 26, {trans-3-(4-{[4-(2-hydroxyethyl)-6-(trifluoromethyl)pyridin-2-yl]oxy}piperidin-1-yl)-1-[4-(7H-pyrrolo[2,3-d]pyrimidin-4-yl)-1H-pyrazol-1-yl]cyclobutyl}acetonitrile]	>10
N[C@H]1CC[C@H](Cc2nc(-c3ccc(F)cc3)c3cnc(NCCCc4ccccc4)nn23)CC1 [Example 14, trans-7-((4-Aminocyclohexyl)methyl)-5-(4-fluorophenyl)-N-(3-phenylpropyl)imidazo[5,1-f][1,2,4]triazin-2-amine]	>10
